These results are taken from patent publication US9382188B2, “Aromatic ring compound” (TAKEDA PHARMACEUTICAL COMPANY LIMITED, priority 2012, dated 2016).

The target in this experiment is T1, human GPR40 (Homo sapiens, UniProt O14842).
T1 construct: expressed in transfected cells
T1 sequence (O14842 whole entry): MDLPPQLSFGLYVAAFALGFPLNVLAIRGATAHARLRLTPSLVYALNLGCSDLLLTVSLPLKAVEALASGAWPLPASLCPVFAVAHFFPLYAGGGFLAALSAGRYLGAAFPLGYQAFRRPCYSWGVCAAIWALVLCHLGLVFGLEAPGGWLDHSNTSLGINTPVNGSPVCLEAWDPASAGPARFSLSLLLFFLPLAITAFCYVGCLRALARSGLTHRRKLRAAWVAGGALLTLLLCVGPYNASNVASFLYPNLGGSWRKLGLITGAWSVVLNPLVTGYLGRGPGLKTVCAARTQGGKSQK
Briefly: Evaluation of human GPR40 agonist activity with increase in intracellular Ca2+ concentration as an index (FLIPR Tetra). It is filed as cell-based. The settings on record: test compound 1 μM; CHO(dhfr-) cells stably expressing human GPR40; 100% = activity of 1 μM WO2009/048527 Example 99.2, 0% = DMSO. The protocol: Evaluation of human GPR40 agonist activity with increase in intracellular Ca^2+ concentration as an index
CHO(dhfr-) cells that stably expressed human GPR40 were suspended in MEMα (Nikken Bio Medical Laboratory) containing 10% dialysis serum (GEMINI BIO-PRODUCTS), 10 mM HEPES (Invitrogen), 100 U/mL penicillin, 100 μg/mL streptomycin (Invitrogen), and plated on a 384 well black/clear cell culture plate at 10,000 cells/well. After culture overnight in a CO2 incubator at 37° C., the culture supernatant was removed, and a loading buffer [dye attached to Calcium 5 Assay Kit (Molecular Devices) was dissolved in an assay buffer (20 mM HEPES, 0.2% fatty acid-free BSA (Sigma-Aldrich), 2.5 mM probenecid (DOJINDO)-containing HBSS (Invitrogen)) added with 0.025% Cremophor EL (DOJINDO)] was added at 37.5 μL/well. After incubation in a CO2 incubator at 37° C. for 1 hr, the cells were stood at room temperature for 15 min, an assay buffer containing the test compound at a final concentration of 1 μM was added at 12.5 μL/well in FLIPR Tetra (Molecular Devices), and the fluorescence amount was successively measured. Human GPR40 agonist activity calculated using an increase in the intracellular Ca^2+ concentration as an index, wherein the activity of 1 μM of the compound described in WO 2009/048527 (WO2009/048527 Example 99.2) was 100%, and the activity when DMSO was added instead of the test compound was 0%.
For the compound `CC(C)(C)Cc1cc(OCc2cccc(C(CC(=O)O)C3CC3)c2)cnc1-c1cccc(C(F)(F)F)c1` (stereo not shown) [Example 52, 3-cyclopropyl-3-(3-(((5-(2,2-dimethylpropyl)-6-(3-(trifluoromethyl)phenyl)pyridin-3-yl)oxy)methyl)phenyl)propanoic acid], the activation at 1 µM was 14%.
Regarding `COc1ccc(F)c(-c2ccc(OCc3cccc(C(CC(=O)O)C4CC4)c3)cc2COCC(C)(C)C)c1` (stereo not shown) [Example 114, 3-cyclopropyl-3-(3-(((2′-fluoro-5′-methoxy-2-((neopentyloxy)methyl)-[1,1′-biphenyl]-4-yl)oxy)methyl)phenyl)propanoic acid], the activation at 1 µM is 103%.
The value for `CC#CC(CC(=O)O)c1cccc(COc2ccc(-c3cc(OC)ccc3F)c(CC(C)(C)C)c2)c1` (stereo not shown) [Example 76, 3-(3-(((2′-fluoro-5′-methoxy-2-neopentyl-[1,1′-biphenyl]-4-yl)oxy)methyl)phenyl)hex-4-ynoic acid] was 95%.
The figure for `COc1ccc(F)c(-c2ccc(N(Cc3cccc(C(CC(=O)O)C4CC4)c3)CC(F)(F)F)cc2CC(C)(C)C)c1` (stereo not shown) [Example 11, 3-cyclopropyl-3-(3-(((2-(2,2-dimethylpropyl)-2′-fluoro-5′-methoxybiphenyl-4-yl)(2,2,2-trifluoroethyl)amino)methyl)phenyl)propanoic acid] is 106%.
The figure for `COc1ccc(F)c(-c2ccc(NCc3cccc(C(CC(=O)O)C4CC4)c3)cc2CC(C)(C)C)c1` (stereo not shown) [Example 8, 3-cyclopropyl-3-(3-(((2-(2,2-dimethylpropyl)-2′-fluoro-5′-methoxybiphenyl-4-yl)amino)methyl)phenyl)propanoic acid] is 98%; for `Cc1cncc(-c2ncc(OCc3cccc(C(CC(=O)O)C4CC4)c3)cc2CC(C)(C)C)c1` (stereo not shown) [Example 63, 3-cyclopropyl-3-(3-(((3-(2,2-dimethylpropyl)-5′-methyl-2,3′-bipyridin-5-yl)oxy)methyl)phenyl)propanoic acid] it is 21%; for `CC(C)(C)Cc1cc(OCc2cccc(C(CC(=O)O)C3CC3)c2)cnc1-c1cccc(OC(F)(F)F)c1` (stereo not shown) [Example 49, 3-cyclopropyl-3-(3-(((5-(2,2-dimethylpropyl)-6-(3-(trifluoromethoxy)phenyl)pyridin-3-yl)oxy)methyl)phenyl)propanoic acid] it is -23%.
`COc1ccc(F)c(-c2ccc(OCc3cccc(C(CC(=O)O)C(C)(F)F)c3)cc2CC(C)(C)C)c1` (stereo not shown) [Example 86, 4,4-difluoro-3-(3-(((2′-fluoro-5′-methoxy-2-neopentyl-[1,1′-biphenyl]-4-yl)oxy)methyl)phenyl)pentanoic acid]: the activation at 1 µM turned out to be 95%.
For the compound `COc1cc(OC)cc(-c2ncc(OCc3cccc(C(CC(=O)O)C4CC4)c3)cc2CC(C)(C)C)c1` (stereo not shown) [Example 56, 3-cyclopropyl-3-(3-(((6-(3,5-dimethoxyphenyl)-5-(2,2-dimethylpropyl)pyridin-3-yl)oxy)methyl)phenyl)propanoic acid], the activation at 1 µM came to 31%.
The figure for `CCC(CC(=O)O)c1cccc(COc2ccc(-c3cc(OC)ccc3F)c(CC(C)(C)C)c2)c1` (stereo not shown) [Example 80, 3-(3-(((2′-fluoro-5′-methoxy-2-neopentyl-[1,1′-biphenyl]-4-yl)oxy)methyl)phenyl)pentanoic acid] is 94%; for `CC(C)(C)Cc1cc(OCc2cccc(C(CC(=O)O)C3CC3)c2)cnc1-c1cccc(C(=O)O)c1` (stereo not shown) [Example 51, 3-(5-((3-(2-carboxy-1-cyclopropylethyl)benzyl)oxy)-3-(2,2-dimethylpropyl)pyridin-2-yl)benzoic acid] it is 0%; for `COc1cncc(-c2ncc(OCc3cccc(C(CC(=O)O)C4CC4)c3)cc2CC(C)(C)C)c1` (stereo not shown) [Example 66, 3-cyclopropyl-3-(3-(((3-(2,2-dimethylpropyl)-5′-methoxy-2,3′-bipyridin-5-yl)oxy)methyl)phenyl)propanoic acid] it is 57%.
The value for `COc1ccc(F)c(-c2ccc(OCc3cccc(C(CC(=O)O)C4CC4)c3)nc2CC(C)(C)C)c1` (stereo not shown) [Example 4, 3-cyclopropyl-3-(3-(((6-(2,2-dimethylpropyl)-5-(2-fluoro-5-methoxyphenyl)pyridin-2-yl)oxy)methyl)phenyl)propanoic acid] was 110%; that for `COc1ccc(F)c(-c2ccc(OCc3cccc(C(CC(=O)O)C4CC4)c3)cc2CC2(C#N)CCCC2)c1` (stereo not shown) [Example 41, 3-(3-(((2-((1-cyanocyclopentyl)methyl)-2′-fluoro-5′-methoxybiphenyl-4-yl)oxy)methyl)phenyl)-3-cyclopropylpropanoic acid] was 101%; that for `CC(C)(C)Cc1cc(OCc2cccc(C(CC(=O)O)C3CC3)c2)cnc1-c1cccc(S(=O)(=O)N2CCOCC2)c1` (stereo not shown) [Example 67, 3-cyclopropyl-3-(3-(((5-(2,2-dimethylpropyl)-6-(3-(morpholin-4-ylsulfonyl)phenyl)pyridin-3-yl)oxy)methyl)phenyl)propanoic acid] was 8%.
For the compound `CCC(C)(C)C(O)c1cc(OCc2cccc(C(CC(=O)O)C3CC3)c2)ccc1-c1cc(OC)ccc1F` (stereo not shown) [Example 108, 3-cyclopropyl-3-(3-(((2′-fluoro-2-(1-hydroxy-2,2-dimethylbutyl)-5′-methoxybiphenyl-4-yl)oxy)methyl)phenyl)propanoic acid], the activation at 1 µM was 129%.
The value for `COc1ccc(-c2ncc(OCc3cccc(C(CC(=O)O)C4CC4)c3)cc2CC(C)(C)C)cc1OC` (stereo not shown) [Example 54, 3-cyclopropyl-3-(3-(((6-(3,4-dimethoxyphenyl)-5-(2,2-dimethylpropyl)pyridin-3-yl)oxy)methyl)phenyl)propanoic acid] was 3%; that for `Cc1cccc(-c2ncc(OCc3cccc(C(CC(=O)O)C4CC4)c3)cc2CC(C)(C)C)c1` (stereo not shown) [Example 47, 3-cyclopropyl-3-(3-(((5-(2,2-dimethylpropyl)-6-(3-methylphenyl)pyridin-3-yl)oxy)methyl)phenyl)propanoic acid] was 92%.
On to `COc1ccc(F)c(-c2ccc(SCc3cccc(C(CC(=O)O)C4CC4)c3)cc2CC(C)(C)C)c1` (stereo not shown) [Example 12, 3-cyclopropyl-3-(3-(((2-(2,2-dimethylpropyl)-2′-fluoro-5′-methoxybiphenyl-4-yl)sulfanyl)methyl)phenyl)propanoic acid], for which the activation at 1 µM is 113%.
Consider `C=CC(CC(=O)O)c1cccc(COc2ccc(-c3cc(OC)ccc3F)c(CC(C)(C)C)c2)c1` (stereo not shown) [Example 79, 3-(3-(((2′-fluoro-5′-methoxy-2-neopentyl-[1,1′-biphenyl]-4-yl)oxy)methyl)phenyl)pent-4-enoic acid], for which the activation at 1 µM came out at 134%.
The figure for `COc1ccc(F)c(-c2ccc(OCc3cccc(C(CC(=O)O)CC(=O)O)c3)cc2CC(C)(C)C)c1` [Example 82, 3-(3-(((2′-fluoro-5′-methoxy-2-neopentyl-[1,1′-biphenyl]-4-yl)oxy)methyl)phenyl)pentanedioic acid] is 5%; for `CC(C)(C)Cc1cc(OCc2cccc(C(CC(=O)O)C3CC3)c2)cnc1-c1ccccc1` (stereo not shown) [Example 45, 3-cyclopropyl-3-(3-(((5-(2,2-dimethylpropyl)-6-phenylpyridin-3-yl)oxy)methyl)phenyl)propanoic acid] it is 55%.
